Values quoted from earlier work, collected in patent publication US6444811B1, “Pyrazinones, compositions containing such compounds and methods of use” (Merck Frosst Canada & Co., priority 1999, dated 2002).

What was measured:
caspase-1 = target: T1, caspase-1 (Homo sapiens, UniProt P29466)
T1 sequence (P29466 120-297 limits assumed): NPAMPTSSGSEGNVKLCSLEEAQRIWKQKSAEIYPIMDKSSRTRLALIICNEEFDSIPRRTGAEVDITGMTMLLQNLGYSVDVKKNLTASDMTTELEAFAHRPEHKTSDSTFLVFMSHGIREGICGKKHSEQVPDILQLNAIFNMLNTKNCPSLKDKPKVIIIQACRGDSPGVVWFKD
T1 sequence (P29466 317-404 limits assumed): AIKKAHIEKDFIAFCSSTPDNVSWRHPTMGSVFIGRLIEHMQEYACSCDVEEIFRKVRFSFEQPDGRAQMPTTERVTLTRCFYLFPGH

caspase-3 = target: T2, caspase-3 (Homo sapiens, UniProt P42574)
T2 sequence (P42574 29-175 limits assumed): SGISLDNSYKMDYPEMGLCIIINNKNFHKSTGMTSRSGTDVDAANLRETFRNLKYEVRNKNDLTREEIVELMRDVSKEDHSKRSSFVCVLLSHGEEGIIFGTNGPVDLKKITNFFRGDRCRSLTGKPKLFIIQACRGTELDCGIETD
T2 sequence (P42574 176-277 limits assumed): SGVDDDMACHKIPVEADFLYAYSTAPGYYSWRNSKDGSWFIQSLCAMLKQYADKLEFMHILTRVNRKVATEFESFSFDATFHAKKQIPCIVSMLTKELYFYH

Ac-YVAD-CHO
Ki (caspase-1): < 0.001 µM
kon caspase-1 (caspase-1; slow-binding time-dependent inhibition): 380000 M⁻¹ s⁻¹
Ki (caspase-3): 12 µM
